Patent US12522594B2, “2-heteroaryl-3-oxo-2,3-dihydropyridazine-4-carboxamides for the treatment of cancer” (Deutsches Krebsforschungszentrum, priority 2017, dated 2026)
pIC50: −log10 of the molar value.

Legend:
AHR [1] = biological target: T1, AHR (Homo sapiens, UniProt P35869); assay: In vitro assay 1: antagonism in human cell line (transactivation assay, U87 cells prestimulated with kynurenic acid, DRE firefly luciferase reporter); type: cell-based; design: host or cells: U87 glioblastoma cells, stably transfected with DRE firefly luciferase and renilla reporter constructs; settings: 150 uM kynurenic acid, 20 hours, read-out: Assay 1: AHR-luc Hum Antagonism IC50
T1 sequence (P35869 11-848): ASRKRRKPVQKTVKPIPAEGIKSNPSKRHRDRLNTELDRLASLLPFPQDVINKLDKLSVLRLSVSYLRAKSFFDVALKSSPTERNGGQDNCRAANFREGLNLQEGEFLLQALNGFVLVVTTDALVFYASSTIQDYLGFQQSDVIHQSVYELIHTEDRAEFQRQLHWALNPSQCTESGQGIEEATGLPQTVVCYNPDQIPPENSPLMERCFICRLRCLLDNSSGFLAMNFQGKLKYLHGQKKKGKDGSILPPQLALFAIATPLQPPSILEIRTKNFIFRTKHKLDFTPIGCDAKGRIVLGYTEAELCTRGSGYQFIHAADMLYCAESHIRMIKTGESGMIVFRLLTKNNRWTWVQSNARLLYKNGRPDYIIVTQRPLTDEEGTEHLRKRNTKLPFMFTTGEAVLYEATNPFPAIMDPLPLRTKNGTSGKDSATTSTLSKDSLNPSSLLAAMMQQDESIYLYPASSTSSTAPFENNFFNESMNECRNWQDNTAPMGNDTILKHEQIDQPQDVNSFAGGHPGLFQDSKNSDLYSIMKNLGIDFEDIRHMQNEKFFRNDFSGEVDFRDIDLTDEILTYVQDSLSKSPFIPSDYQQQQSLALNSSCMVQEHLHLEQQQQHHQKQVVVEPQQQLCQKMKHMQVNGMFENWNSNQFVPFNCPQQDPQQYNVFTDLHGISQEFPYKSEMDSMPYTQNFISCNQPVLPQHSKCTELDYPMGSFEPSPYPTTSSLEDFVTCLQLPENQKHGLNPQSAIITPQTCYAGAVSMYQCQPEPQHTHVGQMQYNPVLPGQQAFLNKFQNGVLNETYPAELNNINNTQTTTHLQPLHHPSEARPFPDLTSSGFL
Description: (§1) Transactivation Assay in Human Cell Line (In Vitro Assays 1 and 2)
(§2) Transactivation assays were carried out in U87 glioblastoma cells (ATCC) endogenously expressing AHR. In addition the cells were stably transfected with an AHR inducible firefly luciferase reporter gene construct that carried AHR-binding sites (DRE) in its promoter and a renilla reporter gene construct with constitutively active promoter. Kynurenic acid is an endogenous AHR activating ligand and was used to prestimulate test cells prior to testing the antagonistic properties of compounds.
In Vitro Assay 1: Antagonism in Human Cell Line
Normalization was done by positive and negative controls.

AHR [2] = biological target: T1, AHR; assay: In vitro assay 2: agonism in human cell line (transactivation assay, U87 cells, DRE firefly luciferase reporter); type: cell-based; design: host or cells: U87 glioblastoma cells, stably transfected with DRE firefly luciferase and renilla reporter constructs; settings: no kynurenic acid, 20 hours, read-out: Assay 2: AHR-luc Hum Agonism IC50
Description: as §1, §2
In Vitro Assay 2: Agonism in Human Cell Line
As positive activation control cells were incubated with 300 uM kynurenic acid. Normalization was done by positive and negative controls.

Compound | pIC50 (AHR [1]) | pIC50 (AHR [2])
O=C(N[C@H]1CCCC(F)(F)[C@@H]1O)c1cc(-c2ccc(OC(F)(F)F)cc2)nn(-c2cccnc2)c1=O (relative stereo) [Example 140, N-[(trans)-3,3-Difluoro-2-hydroxycyclohexyl]-3-oxo-2-(pyridin-3-yl)-6-[4-(trifluoromethoxy)phenyl]-2,3-dihydropyridazine-4-carboxamide] | 8.02 | < 4.70
O=C(N[C@@H]1CCC[C@H]1O)c1cc(-c2ccc(Cl)cc2)nn(-c2cccnc2)c1=O (relative stereo) [Example 148, 6-(4-Chlorophenyl)-N-[(trans)-2-hydroxycyclopentyl]-3-oxo-2-(pyridin-3-yl)-2,3-dihydropyridazine-4-carboxamide] | 7.82 | < 4.70
O=C(N[C@H]1COC[C@@H]1O)c1cc(-c2ccc(Cl)cc2)nn(-c2cncc(F)c2)c1=O (relative stereo) [Example 154, 6-(4-Chlorophenyl)-2-(5-fluoropyridin-3-yl)-N-[(trans)-4-hydroxytetrahydrofuran-3-yl]-3-oxo-2,3-dihydropyridazine-4-carboxamide] | 7.43 | < 4.70
O=C(N[C@H]1COC[C@H]1O)c1cc(-c2ccc(OC(F)(F)F)cc2)nn(-c2cccnc2)c1=O (relative stereo) [Example 157, N-[(cis)-4-Hydroxytetrahydrofuran-3-yl]-3-oxo-2-(pyridin-3-yl)-6-[4-(trifluoromethoxy)phenyl]-2,3-dihydropyridazine-4-carboxamide] | 7.41 | < 4.70
O=C(N[C@H]1COC[C@H]1O)c1cc(-c2ccc(Cl)cc2)nn(-c2ccnnc2)c1=O (relative stereo) [Example 181, 3-(4-Chlorophenyl)-N-[(cis)-4-hydroxytetrahydrofuran-3-yl]-6-oxo-6H-1,4′-bipyridazine-5-carboxamide] | 6.04 | < 4.70
O=C(N[C@H]1COC[C@H]1O)c1cc(-c2ccc(C(F)F)nc2)nn(-c2cccnc2)c1=O (relative stereo) [Example 182, 6-[6-(Difluoromethyl)pyridin-3-yl]-N-[(cis)-4-hydroxytetrahydrofuran-3-yl]-3-oxo-2-(pyridin-3-yl)-2,3-dihydropyridazine-4-carboxamide] | 5.21 | < 4.70
Cn1cc(-n2nc(-c3ccc(C(F)(F)F)cc3)cc(C(=O)N[C@@H]3COC[C@@H]3O)c2=O)cn1 (relative stereo) [Example 215, N-cis-4- Hydroxytetrahyd rofuran-3-yl-2-(1-methyl-1H-pyrazol-4-yl)-3-oxo-6-[4-(trifluoromethyl)phenyl]-2,3-dihydropyridazine-4-carboxamide] | 8.66 | < 4.70
O=C(N[C@@H]1CC[C@@H]1O)c1cc(-c2ccc(C(F)(F)F)cc2)nn(-c2cccnc2)c1=O (relative stereo) [Example 224, N-cis-2- Hydroxycyclobutyl-3-oxo-2-(pyridin-3-yl)-6-[4-(trifluoromethyl)phenyl]-2,3-dihydropyridazine-4-carboxamide] | 8.36 | < 4.70
O=C(N[C@@H]1CC[C@@H]1O)c1cc(-c2ccc(Cl)cc2)nn(-c2cccnc2)c1=O (relative stereo) [Example 258, 6-(4-Chlorophenyl)-N-cis-2-hydroxycyclobutyl-3-oxo-2-(pyridin-3-yl)-2,3-dihydropyridazine-4-carboxamide] | 7.56 | < 4.70
O=C(N[C@@H]1CSC[C@@H]1O)c1cc(-c2ccc(C(F)(F)F)cc2)nn(-c2cccnc2)c1=O (relative stereo) [Example 290, N-cis-4-Hydroxytetra-hydrothiophen-3-yl-3-oxo-2-(pyridin-3-yl)-6-[4-(trifluoromethyl)phenyl]-2,3-dihydropyridazine-4-carboxamide] | 8.55 | < 4.70
O=C(N[C@@H]1COC[C@@H]1O)c1cc(-c2ccc(Cl)cc2)nn(-c2cncc(F)c2)c1=O (relative stereo) [Example 301, 6-(4-Chlorophenyl)-2-(5-fluoropyridin-3-yl)-N-[(cis)-4-hydroxytetrahydro-furan-3-yl]-3-oxo-2,3-dihydropyridazine-4-carboxamide] | 7.51 | < 4.70
O=C(N[C@@H]1COC[C@@H]1O)c1cc(-c2ccc(C(F)F)cc2)nn(-c2cccnc2)c1=O (relative stereo) [Example 323, 6-[4-(Difluoromethyl)phenyl]-N-[(cis)-4-hydroxy-tetrahydrofuran-3-yl]-3-oxo-2-(pyridin-3-yl)-2,3-dihydropyridazine-4-carboxamide] | 7.22 | < 4.70
C[C@]1(O)CCC[C@H]1NC(=O)c1cc(-c2ccc(OC(F)(F)F)cc2)nn(-c2cccnc2)c1=O (relative stereo) [Example 328, N-[(cis)-2-Hydroxy-2-methylcyclopentyl]-3-oxo-2-(pyridin-3-yl)-6-[4-(trifluoromethoxy)phenyl]-2,3-dihydropyridazine-4-carboxamide] | 7.51 | < 4.70
Cc1ccc(-c2cc(C(=O)NC(CO)C(C)C)c(=O)n(-c3cnn(C)c3)n2)cc1 (single isomer, unassigned) [Example 3, N-(1-Hydroxy-3-methylbutan-2-yl)-6-(4-methylphenyl)-2-(1-methyl-1H-pyrazol-4-yl)-3-oxo-2,3-dihydropyridazine-4-carboxamide] | 6.98 | < 4.70
CCC(CO)NC(=O)c1cc(-c2ccc(C)cc2)nn(-c2cnn(C)c2)c1=O (single isomer, unassigned) [Example 6, N-(1-Hydroxybutan-2-yl)-6-(4-methylphenyl)-2-(1-methyl-1H-pyrazol-4-yl)-3-oxo-2,3-dihydropyridazine-4-carboxamide] | 6.74 | < 4.70
O=C(N[C@H]1COC[C@H]1O)c1cc(-c2ccc(C(F)F)nc2)nn(-c2cccnc2)c1=O (single isomer, unassigned) [Example 183, 6-[6-(Difluoromethyl)pyridin-3-yl]-N-[(cis)-4-hydroxytetrahydrofuran-3-yl]-3-oxo-2-(pyridin-3-yl)-2,3-dihydropyridazine-4-carboxamide] | 5.71 | < 4.70
CC(C)(O)C(NC(=O)c1cc(-c2ccc(Cl)cc2)nn(-c2cncnc2)c1=O)C(F)(F)F (single isomer, unassigned) [Example 187, 6-(4-Chlorophenyl)-3-oxo-2-(pyrimidin-5-yl)-N-(1,1,1-trifluoro-3-hydroxy-3-methylbutan-2-yl)-2,3-dihydropyridazine-4-carboxamide] | 7.47 | < 4.70
O=C(N[C@@H]1CC[C@@H]1O)c1cc(-c2ccc(Cl)cc2)nn(-c2cccnc2)c1=O (single isomer, unassigned) [Example 249, (+)-6-(4-Chlorophenyl)-N-cis-2-hydroxycyclo-butyl-3-oxo-2-(pyridin-3-yl)-2,3-dihydropyridazine-4-carboxamide] | 7.82 | < 4.70
O=C(N[C@@H]1CC[C@@H]1O)c1cc(-c2ccc(C(F)(F)F)cc2)nn(-c2cccnc2)c1=O (single isomer, unassigned) [Example 268, (−)-N-cis-2-Hydroxycyclo-butyl-3-oxo-2-(pyridin-3-yl)-6-[4-(trifluoromethyl)phenyl]-2,3-dihydropyridazine-4-carboxamide] | 7.24 | < 4.70
O=C(N[C@@H]1CC[C@@H]1O)c1cc(-c2ccc(Cl)cc2)nn(-c2cccnc2)c1=O (single isomer, unassigned) [Example 281, (−)-6-(4-Chlorophenyl)-N-cis-2-hydroxycyclobutyl-3-oxo-2-(pyridin-3-yl)-2,3-dihydropyridazine-4-carboxamide] | 6.58 | < 4.70
O=C(N[C@@H]1CSC[C@@H]1O)c1cc(-c2ccc(C(F)(F)F)cc2)nn(-c2cccnc2)c1=O (single isomer, unassigned) [Example 291, (−)-N-cis-4-hydroxy-tetrahydrothiophen-3-yl-3-oxo-2-(pyridin-3-yl)-6-[4-(trifluoromethyl)phenyl]-2,3-dihydropyridazine-4-carboxamide] | 8.36 | < 4.70
